Key:
[1] = biological target: T1, SULT1A1 rat + CysDNCQ (Rattus norvegicus, UniProt P17988); assay: Sulfation of phenolic compounds in vivo by E. coli strain expressing sulfotransferase with cysDNCQ; assay type: cell-based; conditions: M9, 1 mM IPTG, overnight 37° C.; start concentration per compound 61-287 μM
T1 construct: 1, 3, 4, 5, and 6 were cloned amplified from liver tissue cDNA (Zyagen) by PCR; expressed in transfected cells; host or cells: E. coli BL21(DE3)pLysS with pETDuet-1 (SULT1A1) and pRSFDuet-1 (cysDNCQ)
Description: (§1) The concentration of p-courmaric acid (pHCA) and zosteric acid in the supernatant was quantified by high performance (HPLC) and compared to chemical standards. HPLC was done on a Thermo setup using a HS-F5 column and mobile phases: 5 mM ammonium formate pH 4.0 (A) and acetonitrile (B) at 1.5 mL min-1, using a gradient elution starting at 5% B. From 0.5 min after injection to 7 min, the fraction of B increased linearly from 5% to 60%, and between 9.5 min and 9.6 the fraction of B decreased back to 5%, and remaining there until 12 min. pHCA and zosteric acid were quantified by measuring absorbance at 277 nm.
(§2) To further test the range of substrates that can be sulfated, we used strains carrying plasmids expressing SULT1A1 from rat (Rattus norvegicus) and SULT1E1 from chicken (Gallus gallus domesticus) (Example 1) cloned into the expression vector pETDuet-1, and cysDNCQ from E. coli cloned into expression vector pRSFDuet-1 (Example 2). The plasmids were introduced into the E. coli expression strain BL21(DE3)pLysS as described previously, selecting for transformants with appropriate antibiotics, namely 34 μg mL^1 chloramphenicol for pLysS, 100 μg mL^−1 ampicillin for pETDuet-1-based vectors, and 100 μg mL^−1 kanamycin for pRSFDuet-1-based vectors. […] A control strain without a sulfotransferase gene or cysDNCQ operon was also examined.
(§3) The strains were precultured in 2×YT medium with appropriate antibiotics. 10 μL of these precultures were used to inoculate M9 media with 1 mM IPTG and none or a single substrate for sulfation. After overnight growth at 37° C., 300 rpm the supernatants were withdrawn and examined by HPLC as described in Example 1. The compounds were detected by UV absorbance.

[2] = test system: SULT1E1 from chicken; assay: Sulfation of phenolic compounds in vivo by E. coli strain expressing sulfotransferase; assay type: cell-based, Gallus gallus domesticus; conditions: M9, 1 mM IPTG, overnight 37° C.; start concentration per compound 61-287 μM
Description: as §1, §2, §3

[3] = biological target: T2, SULT1A1 from rat (Rattus norvegicus, UniProt P17988); assay: as above; assay type: cell-based; conditions: M9, 1 mM IPTG, overnight 37° C.; start concentration per compound 61-287 μM
T2 construct: 1, 3, 4, 5, and 6 were cloned amplified from liver tissue cDNA (Zyagen) by PCR; expressed in transfected cells; host or cells: E. coli BL21(DE3)pLysS, plasmid pETDuet-1
Description: as §1, §2, §3

[4] = test system: E. coli MG1655; assay: Toxicity of unsulfated or sulfated product: growth rates of E. coli; assay type: cell-based; conditions: M9 0.2% glucose, pH 7, 37° C.; 10-40 mM pHCA or 20 or 40 mM zosteric acid
Excerpt: All media preparations had been adjusted to pH 7. […] Filled squares represent growth rates in media with pHCA.

T2 sequence (P17988 whole entry): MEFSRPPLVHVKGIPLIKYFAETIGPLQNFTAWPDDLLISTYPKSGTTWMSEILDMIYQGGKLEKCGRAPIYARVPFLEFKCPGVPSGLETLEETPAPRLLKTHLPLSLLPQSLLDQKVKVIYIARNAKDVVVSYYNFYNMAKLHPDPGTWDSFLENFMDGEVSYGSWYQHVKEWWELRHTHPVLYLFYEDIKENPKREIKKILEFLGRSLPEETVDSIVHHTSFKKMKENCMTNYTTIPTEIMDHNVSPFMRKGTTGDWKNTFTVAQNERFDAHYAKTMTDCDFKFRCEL
T1 sequence (P17988 whole entry): as above

| SMILES | percent reduction in concentration compared to the control strain, SULT1A1 + CysDNCQ [1] [%] | percent reduction in concentration compared to the control strain, SULT1A1 [3] [%] | percent reduction in concentration compared to the control strain, SULT1E1 [2] [%] | toxicity to the cells (growth rates in exponential growth phase, FIG. 5) [4] |
| --- | --- | --- | --- | --- |
| CC(=O)Nc1ccc(O)cc1 [4-acetamidophenol, reference compound] | 30 | 24 | 10 |  |
| O=c1cc(-c2ccc(O)cc2)oc2cc(O)cc(O)c12 [Apigenin] | 99 | 41 | 98 |  |
| COc1cc(/C=C/C(=O)O)ccc1O [Ferulic acid] | 100 | 72 | 67 |  |
| O=c1cc(-c2ccc(O)c(O)c2)oc2cc(O)cc(O)c12 [Luteolin] | 37 | 27 | 0 |  |
| O=c1c(O)c(-c2ccc(O)c(O)c2)oc2cc(O)cc(O)c12 [Quercetin] | 81 | 75 | 74 |  |
| COc1cc(C(=O)O)ccc1O [Vanillic acid] | 39 | 33 | 0 |  |
| O=c1c(O)c(-c2ccc(O)c(O)c2)oc2cc(O)ccc12 [fisetin] | 100 | 98 | 98 |  |
| O=C(O)/C=C/c1ccc(O)cc1 [pHCA, p-coumaric acid] |  |  |  | toxic to the cells |

Second part, led by results:

| percent reduction in concentration compared to the control strain, SULT1A1 + CysDNCQ [1] [%] | percent reduction in concentration compared to the control strain, SULT1A1 [3] [%] | SMILES | percent reduction in concentration compared to the control strain, SULT1E1 [2] [%] | toxicity to the cells (growth rates in exponential growth phase, FIG. 5) [4] |
| --- | --- | --- | --- | --- |
| 7 | 3 | O=C(O)CCc1ccc(O)cc1 [3-(4-Hydroxyphenyl) propionic acid] | 1 |  |
| 64 | 47 | O=C(O)C(=O)Cc1ccc(O)cc1 [4-Hydroxyphenyl pyruvic acid] | 100 |  |
| 6 | 5 | O=C(O)c1ccc(O)cc1 [4-hydroxybenzoic acid] | 4 |  |

Source: patent US11390894B2, “Biological processes for the production of aryl sulfates” (CysBio ApS, priority 2014, dated 2022)
